In patent US20180064654A1, “Sheet Packs And Methods For Treating Skin” (ELC Management LLC, priority 2015, published 2018):

How the values were obtained:
[1] = test system: PER1 gene expression in skin cells; test: PER1 gene expression in skin cells; type: cell-based
[2] = test system: per1 gene expression in normal human epidermal keratinocytes (NHEK); test: per1 promoter luciferase reporter assay in NHEK; type: cell-based
Experimental: Perl gene expression in normal human epidermal keratinocytes (NHEK) donors was tested in control cells and cells exposed to ozone using the reporter assay. NHEK were plated at a concentration of 3×10^4 in a black walled, 96 well microtiter plate for 3 hours in EpiLife media. The cells were then transfected in supplement free media with a plasmid that contained luciferase as the reporter gene ligated upstream to a per1 promoter element. In addition, transfection was facilitated by addition of Plus and Lipfectamine reagents (Invitrogen, Carlsbad, Calif.). Transfection in supplement free media was carried out for an additional four hours. This “starves” the cells which in turn causes them to be synchronized in their circadian rhythms. After transfection, full media neat and containing ozone was added and incubated for 16 hours. Then a luciferase reagent, Glo-Bright (Promega Corporation, Madison, Wis.) was added and luminescence measures in an Lmax luminometer (Molecular Devices, Sunnyvale, Calif.).
The test was performed again, and in addition, a peptide with per1 gene activity was tested.
In both tests, NHEK were treated at the start of the test (0 hours) so that they were all synchronized with respect to their circadian rhythm, and expressing per1 at the same time. […]

[3] = test system: PER1 gene expression in skin cells; details: "has been shown", no test described; cited from earlier work

For `O=C(/C=C/c1ccc(O)c(O)c1)O[C@@H](C(=O)O)[C@@H](O)C(=O)O` [caftaric acid], the PER1 gene expression [1] was “does not increase PER1 gene expression”.

In the case of `O=[O+][O-]` [ozone], the per1 gene expression ([2]; 24 hours, single treatment, compared with untreated cells (FIG. 6)) was “lesser, and about equivalent, expression of PER1” and the per1 activity ([2]; ozone treated NHEK at 0, 6 and 12 hours, vs untreated cells (FIG. 5)) was “decrease in per1 activity”.

In the case of `O=C(/C=C/c1ccc(O)c(O)c1)O[C@@H](C(=O)O)[C@@H](OC(=O)/C=C/c1ccc(O)c(O)c1)C(=O)O` [cichoric acid], the “activation of PER / PER1” value [3] is listed as “suitable activator of PER and PER1”.
